Measurements as given in paper PMC10598797, “Molecular View on the iRGD Peptide Binding Mechanism: Implications for Integrin Activity and Selectivity Profiles” (Journal of Chemical Information and Modeling, 2023).

Columns and labels:
[1] = target: T1, αvβ6 (Homo sapiens, UniProt P06756+P18564); experiment: Solid-phase integrin binding assay, αvβ6; details: αvβ6 1 μg/mL coated overnight at 4 °C; biotinylated fibronectin 1 μg/mL; 3 h incubation at room temperature; pH 7.4; absorbance 415 nm; mean of three independent experiments ± SEM
T1 construct: purchased Sino Biological Europe GmbH
Description: (§3) Purified αvβ3 (Sino Biological Europe GmbH) and αvβ5 (R&D Systems, Inc.) were diluted to 0.5 μg/mL, while αvβ6 (Sino Biological Europe GmbH) was diluted to 1 μg/mL in coating buffer containing Tris–HCl (20 mmol/L; pH 7.4), NaCl (150 mmol/L), MnCl2 (1 mmol/L), CaCl2 (2 mmol/L), and MgCl2 (1 mmol/L). An aliquot of diluted receptors (100 μL per well) was added to 96-well microtiter plates (Nunc MW96F Maxisorp Straight) and incubated overnight at 4 °C. The plates were then incubated with blocking solution (coating buffer plus 1% bovine serum albumin) for an additional 2 h at room temperature to block nonspecific binding, followed by 3 h incubation at room temperature with various concentrations of test compounds in the presence of, respectively, vitronectin (1 μg/mL, Sigma-Aldrich) for αvβ3 and αvβ5 and fibronectin for αvβ6 (1 μg/mL, Sigma-Aldrich) biotinylated using the EZ-Link Sulfo-NHS-Biotinylation kit (Thermo Fisher). […] Absorbance at 415 nm was read with a BMG Labtech Fluostar Optima microplate reader. All of the experiments were performed in triplicates, and the data collected were analyzed using the GraphPad 5.0 Software Package (GraphPad Prism, San Diego, CA).

[2] = test system: tumor migration; details: in vitro, CendR- and NRP-1-dependent; cited from earlier work
Source text: (§1) The striking iRGD’s tumor-homing activity is linked to the marked overexpression of RGD integrins on the cancer cell membrane.[38]−[40] […] This can be correlated to the peculiar multistage internalization process of iRGD, where the binding to integrins represents only the first step.[16]

[3] = cited from earlier work
Source text: as §1

[4] = test system: metastatic pancreatic ductal adenocarcinoma (PDAC); details: phase I trial, combination with nab-paclitaxel and gemcitabine; cited from earlier work
Source text: (§2) Nowadays, the clinical efficacy of chemotherapeutic drugs is frequently hampered either by a lack of selectivity over healthy cells or by poor pharmacokinetic properties, including cancer homing and penetration. This is especially true for solid tumors, which are frequently characterized by the upregulation of junction proteins such as desmoglein 2 (DSG2) and E-cadherin, and extracellular matrix (ECM) components (i.e., fibrinogen and collagen), which form a physical barrier against the intracellular transport of exogenous molecules.[1] For these reasons, anticancer compounds often need to be a ...

[5] = test system: tumor; details: cited from earlier work
Source text: as §2

[6] = target: T2, αvβ5 (Homo sapiens, UniProt P06756+P18084); experiment: Solid-phase integrin binding assay, αvβ5
T2 construct: purchased R&D Systems, Inc
Description: as §3

[7] = test system: neuropilin-1 (NRP-1); details: cited from earlier work
Source text: as §1

T1 sequence (P06756 31-992 limits assumed): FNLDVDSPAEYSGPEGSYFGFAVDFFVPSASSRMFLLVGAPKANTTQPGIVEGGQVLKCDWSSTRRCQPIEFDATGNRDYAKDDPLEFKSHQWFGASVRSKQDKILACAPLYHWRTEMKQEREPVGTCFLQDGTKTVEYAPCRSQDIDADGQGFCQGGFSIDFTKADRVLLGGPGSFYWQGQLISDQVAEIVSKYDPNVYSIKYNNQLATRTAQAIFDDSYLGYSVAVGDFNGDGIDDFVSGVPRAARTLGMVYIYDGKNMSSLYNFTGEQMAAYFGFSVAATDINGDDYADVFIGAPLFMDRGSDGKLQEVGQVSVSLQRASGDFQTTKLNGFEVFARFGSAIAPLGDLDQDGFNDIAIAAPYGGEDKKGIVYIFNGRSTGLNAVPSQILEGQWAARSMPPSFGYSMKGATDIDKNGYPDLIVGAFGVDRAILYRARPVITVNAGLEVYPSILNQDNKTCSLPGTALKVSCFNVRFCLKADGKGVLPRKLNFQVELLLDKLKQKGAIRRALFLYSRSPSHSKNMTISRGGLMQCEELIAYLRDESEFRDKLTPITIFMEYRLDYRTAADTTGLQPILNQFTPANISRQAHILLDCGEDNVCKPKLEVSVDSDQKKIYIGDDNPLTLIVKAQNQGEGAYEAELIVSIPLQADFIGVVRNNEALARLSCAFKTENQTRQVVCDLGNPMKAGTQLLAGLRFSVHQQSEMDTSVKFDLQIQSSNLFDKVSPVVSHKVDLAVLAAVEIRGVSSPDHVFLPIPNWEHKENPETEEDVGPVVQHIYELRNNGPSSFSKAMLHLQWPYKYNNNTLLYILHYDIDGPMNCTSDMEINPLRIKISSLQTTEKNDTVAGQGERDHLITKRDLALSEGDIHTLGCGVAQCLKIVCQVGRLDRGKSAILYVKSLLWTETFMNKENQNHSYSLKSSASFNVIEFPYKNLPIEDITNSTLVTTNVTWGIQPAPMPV
T1 sequence (P18564 22-707 limits assumed): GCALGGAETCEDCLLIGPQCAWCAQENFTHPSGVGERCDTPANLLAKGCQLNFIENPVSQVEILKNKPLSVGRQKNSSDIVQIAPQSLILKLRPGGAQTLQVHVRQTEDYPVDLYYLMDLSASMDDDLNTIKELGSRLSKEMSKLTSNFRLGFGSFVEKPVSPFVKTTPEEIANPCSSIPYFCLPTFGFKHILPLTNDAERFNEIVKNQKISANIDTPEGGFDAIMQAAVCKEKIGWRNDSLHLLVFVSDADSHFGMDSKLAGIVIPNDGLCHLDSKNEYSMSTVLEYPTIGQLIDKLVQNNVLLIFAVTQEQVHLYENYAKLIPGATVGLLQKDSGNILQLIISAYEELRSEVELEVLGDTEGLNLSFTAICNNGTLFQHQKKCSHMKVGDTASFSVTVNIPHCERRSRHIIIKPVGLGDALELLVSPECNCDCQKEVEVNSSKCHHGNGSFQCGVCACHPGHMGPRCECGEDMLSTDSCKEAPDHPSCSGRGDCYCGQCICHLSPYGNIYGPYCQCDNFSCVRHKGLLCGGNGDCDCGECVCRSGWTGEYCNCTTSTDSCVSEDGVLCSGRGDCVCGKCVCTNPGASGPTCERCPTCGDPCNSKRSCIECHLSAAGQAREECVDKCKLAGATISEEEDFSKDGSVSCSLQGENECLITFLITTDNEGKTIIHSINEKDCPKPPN
T2 sequence (P06756 31-992 limits assumed): as the sequence (P06756 31-992 limits assumed) above
T2 sequence (P18084 24-719 limits assumed): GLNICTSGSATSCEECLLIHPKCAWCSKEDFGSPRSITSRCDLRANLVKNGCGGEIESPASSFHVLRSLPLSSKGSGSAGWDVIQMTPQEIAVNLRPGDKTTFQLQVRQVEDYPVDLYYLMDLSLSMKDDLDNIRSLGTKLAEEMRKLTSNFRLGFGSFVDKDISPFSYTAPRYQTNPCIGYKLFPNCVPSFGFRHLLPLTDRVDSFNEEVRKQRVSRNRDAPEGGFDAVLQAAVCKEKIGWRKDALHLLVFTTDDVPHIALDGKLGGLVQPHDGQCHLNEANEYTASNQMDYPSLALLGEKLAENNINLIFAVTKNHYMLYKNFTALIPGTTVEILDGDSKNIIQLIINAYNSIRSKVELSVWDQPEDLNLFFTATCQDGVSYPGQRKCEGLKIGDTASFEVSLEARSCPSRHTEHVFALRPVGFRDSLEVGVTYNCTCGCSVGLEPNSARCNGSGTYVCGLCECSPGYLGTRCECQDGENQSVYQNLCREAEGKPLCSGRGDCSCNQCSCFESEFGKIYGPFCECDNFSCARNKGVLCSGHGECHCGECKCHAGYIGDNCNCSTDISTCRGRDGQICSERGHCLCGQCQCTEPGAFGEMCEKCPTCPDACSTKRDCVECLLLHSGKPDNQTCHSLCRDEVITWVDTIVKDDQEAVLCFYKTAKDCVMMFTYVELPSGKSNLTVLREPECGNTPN

Molecule	IC50 [1]	effect on tumor migration and chemorepulsion [2]	site of proteolytical cleavage [3]	progression-free survival [4]	tumor endocytosis of cytotoxic agents [5]	potency toward αvβ5 (in words) [6]	internalization upon binding to NRP-1 [7]
N=C(N)NCCC[C@@H]1NC(=O)[C@@H](N)CSSC[C@@H](C(=O)O)NC(=O)[C@H](CC(=O)O)NC(=O)[C@@H]2CCCN2C(=O)CNC(=O)[C@H](CCCCN)NC(=O)[C@H](CC(=O)O)NC(=O)CNC1=O [1 (iRGD)]	191 ± 44 nM	can inhibit tumor migration and induce chemorepulsion	proteolytical cleavage at the Lys^5–Gly^6 bond	longer progression-free survival	enhanced by the simple coadministration	mid-low nanomolar potency	–
CRGDK [CendR motif]	–	–	–	–	–	–	triggers the internalization of the peptide–receptor complex
